Measured values published in ChEMBL document CHEMBL3044831, “Docking study, in vitro anticancer screening and radiosensitizing evaluation of some new fluorine-containing quinoline and pyrimidoquinoline derivatives bearing a sulfonamide moiety” (Med Chem Res, 2011).

How the values were obtained:
MCF7 [1] = assay: Cytotoxicity against Homo sapiens (human) MCF-7 cells assessed as surviving fraction at 10 uM after 48 hr by SRB assay relative to control; format: functional
MCF7 [2] = assay: Cytotoxicity against Homo sapiens (human) MCF-7 cells assessed as surviving fraction at 50 uM after 48 hr by SRB assay relative to control; format: functional
MCF7 [3] = assay: Cytotoxicity against Homo sapiens (human) MCF-7 cells assessed as surviving fraction at 100 uM after 48 hr by SRB assay relative to control; format: functional
MCF7 [4] = assay: Cytotoxicity against Homo sapiens (human) MCF-7 cells after 48 hr by SRB assay relative to control; format: functional, cell-based; settings: MCF7, 48 h
MCF7 [5] = assay: Cytotoxicity against Homo sapiens (human) MCF7 cells assessed as surviving fraction at 25 uM after 48 hr by SRB assay relative to control; format: functional
MCF7 [6] = assay: Radiosensitizing activity against Homo sapiens (human) gamma-irradiated MCF-7 cells assessed as surviving fraction at 10 uM after 48 hr by SRB assay (reference value: 0.927 +/- 0.02); format: functional
MCF7 [7] = assay: Radiosensitizing activity against Homo sapiens (human) gamma-irradiated MCF-7 cells assessed as surviving fraction at 100 uM after 48 hr by SRB assay (reference value: 0.927 +/- 0.02); format: functional
MCF7 [8] = assay: Radiosensitizing activity against Homo sapiens (human) gamma-irradiated MCF-7 cells assessed as surviving fraction at 25 uM after 48 hr by SRB assay (reference value: 0.927 +/- 0.02); format: functional
MCF7 [9] = assay: Radiosensitizing activity against Homo sapiens (human) gamma-irradiated MCF-7 cells assessed as surviving fraction at 50 uM after 48 hr by SRB assay (reference value: 0.927 +/- 0.02); format: functional
MCF7 [10] = assay: Potentiation of gamma-irradiation-induced cytotoxicity against Homo sapiens (human) MCF-7 cells after 48 hr by SRB assay; format: functional, cell-based; settings: MCF7, light or radiation study

Compound: CC1(C)CC(=O)C2=C(C1)N(c1ccc(S(N)(=O)=O)cc1)C(NC(=O)CCl)=C(C#N)C2c1ccc(F)cc1 (stereo not given)
- fold change (FC) (MCF7 [1]): 0.885
- fold change (FC) (MCF7 [2]): 0.45
- fold change (surviving fraction) (MCF7 [3]): 0.43
- IC50 (MCF7 [4]): 70.8 µM
- fold change (FC) (MCF7 [5]): 0.7

Compound: CC1(C)CC(=O)C2=C(C1)N(c1ccc(S(N)(=O)=O)cc1)c1ncnc(NN)c1C2c1ccc(F)cc1 (stereo not given)
- fold change (FC) (MCF7 [1]): 0.959
- fold change (FC) (MCF7 [2]): 0.478
- fold change (surviving fraction) (MCF7 [3]): 0.518
- IC50 (MCF7 [4]): 81.2 µM
- fold change (FC) (MCF7 [5]): 0.652

Compound: CCNC(=S)NC1=C(C#N)C(c2ccc(F)cc2)C2=C(CC(C)(C)CC2=O)N1c1ccc(S(N)(=O)=O)cc1 (stereo not given)
- fold change (FC) (MCF7 [1]): 0.924
- fold change (FC) (MCF7 [2]): 0.642
- fold change (surviving fraction) (MCF7 [3]): 0.609
- IC50 (MCF7 [4]): > 100 µM
- fold change (FC) (MCF7 [5]): 0.852

Compound: CC1(C)CC(=O)C2=C(C1)N(c1ccc(S(N)(=O)=O)cc1)c1nc[nH]c(=O)c1C2c1ccc(F)cc1 (stereo not given)
- fold change (FC) (MCF7 [1]): 0.934
- fold change (FC) (MCF7 [2]): 0.499
- fold change (surviving fraction) (MCF7 [3]): 0.447
- IC50 (MCF7 [4]): 77.1 µM
- fold change (FC) (MCF7 [5]): 0.757

Compound: CC(=O)N(C(C)=O)C1=C(C#N)C(c2ccc(F)cc2)C2=C(CC(C)(C)CC2=O)N1c1ccc(S(N)(=O)=O)cc1 (stereo not given)
- fold change (FC) (MCF7 [1]): 0.987
- fold change (FC) (MCF7 [2]): 0.455
- fold change (surviving fraction) (MCF7 [3]): 0.498
- IC50 (MCF7 [4]): 79.7 µM
- fold change (FC) (MCF7 [5]): 0.733

Compound: CC1(C)CC(=O)C2=C(C1)N(c1ccc(S(N)(=O)=O)cc1)c1nc(CCl)[nH]c(=O)c1C2c1ccc(F)cc1 (stereo not given)
- fold change (FC) (MCF7 [1]): 0.984
- fold change (FC) (MCF7 [2]): 0.784
- fold change (surviving fraction) (MCF7 [3]): 0.768
- IC50 (MCF7 [4]): > 100 µM
- fold change (FC) (MCF7 [5]): 0.77

Compound: CC1(C)CC(=O)C2=C(C1)N(c1ccc(S(N)(=O)=O)cc1)C(N)=C(C#N)C2c1ccc(F)cc1 (stereo not given)
- fold change (FC) (MCF7 [1]): 0.855
- fold change (FC) (MCF7 [2]): 0.427
- fold change (surviving fraction) (MCF7 [3]): 0.482
- IC50 (MCF7 [4]): 71.8 µM
- fold change (FC) (MCF7 [5]): 0.562

Compound: CC1(C)CC(=O)C2=C(C1)N(c1ccc(S(N)(=O)=O)cc1)c1ncnc(Cl)c1C2c1ccc(F)cc1 (stereo not given)
- fold change (FC) (MCF7 [1]): 0.909
- fold change (FC) (MCF7 [2]): 0.635
- fold change (surviving fraction) (MCF7 [3]): 0.457
- IC50 (MCF7 [4]): 85.6 µM
- fold change (FC) (MCF7 [5]): 0.785

Compound: CC1(C)CC(=O)C2=C(C1)N(c1ccc(S(N)(=O)=O)cc1)C(N1C(=O)CCC1=O)=C(C#N)C2c1ccc(F)cc1 (stereo not given)
- fold change (FC) (MCF7 [1]): 0.933
- fold change (FC) (MCF7 [2]): 0.678
- fold change (surviving fraction) (MCF7 [3]): 0.488
- IC50 (MCF7 [4]): 94.1 µM
- fold change (FC) (MCF7 [5]): 0.885

Compound: CC1(C)CC(=O)C2=C(C1)N(c1ccc(S(N)(=O)=O)cc1)c1ncnc(N=C=S)c1C2c1ccc(F)cc1 (stereo not given)
- fold change (FC) (MCF7 [1]): 0.922
- fold change (FC) (MCF7 [2]): 0.487
- fold change (surviving fraction) (MCF7 [3]): 0.534
- IC50 (MCF7 [4]): 85.6 µM
- fold change (FC) (MCF7 [5]): 0.755

Compound: Cc1nc2c(c(=O)[nH]1)C(c1ccc(F)cc1)C1=C(CC(C)(C)CC1=O)N2c1ccc(S(N)(=O)=O)cc1 (stereo not given)
- fold change (FC) (MCF7 [1]): 0.768
- fold change (FC) (MCF7 [2]): 0.494
- fold change (surviving fraction) (MCF7 [3]): 0.425
- IC50 (MCF7 [4]): 69.8 µM
- fold change (FC) (MCF7 [5]): 0.654

Compound: CC(=O)CC(=O)NC1=C(C#N)C(c2ccc(F)cc2)C2=C(CC(C)(C)CC2=O)N1c1ccc(S(N)(=O)=O)cc1 (stereo not given)
- fold change (FC) (MCF7 [1]): 0.919
- fold change (FC) (MCF7 [2]): 0.76
- fold change (surviving fraction) (MCF7 [3]): 0.663
- IC50 (MCF7 [4]): > 100 µM
- fold change (FC) (MCF7 [5]): 0.905

Compound: CCO/C=N/C1=C(C#N)C(c2ccc(F)cc2)C2=C(CC(C)(C)CC2=O)N1c1ccc(S(N)(=O)=O)cc1 (stereo not given)
- fold change (FC) (MCF7 [6]): 0.677
- fold change (FC) (MCF7 [7]): 0.156
- fold change (FC) (MCF7 [8]): 0.428
- fold change (FC) (MCF7 [9]): 0.199
- IC50 (MCF7 [10]): 36 µM
- fold change (FC) (MCF7 [1]): 0.904
- fold change (FC) (MCF7 [2]): 0.477
- fold change (surviving fraction) (MCF7 [3]): 0.401
- IC50 (MCF7 [4]): 67.3 µM
- fold change (FC) (MCF7 [5]): 0.62

Compound: CCOC(=O)Cn1cnc2c(c1=O)C(c1ccc(F)cc1)C1=C(CC(C)(C)CC1=O)N2c1ccc(S(N)(=O)=O)cc1 (stereo not given)
- fold change (FC) (MCF7 [1]): 0.969
- fold change (FC) (MCF7 [2]): 0.686
- fold change (surviving fraction) (MCF7 [3]): 0.572
- IC50 (MCF7 [4]): > 100 µM
- fold change (FC) (MCF7 [5]): 0.898

Compound: CC1(C)CC(=O)C2=C(C1)N(c1ccc(S(N)(=O)=O)cc1)c1ncnc(N)c1C2c1ccc(F)cc1 (stereo not given)
- fold change (FC) (MCF7 [6]): 0.51
- fold change (FC) (MCF7 [7]): 0.222
- fold change (FC) (MCF7 [8]): 0.347
- fold change (FC) (MCF7 [9]): 0.163
- IC50 (MCF7 [10]): 28.5 µM
- fold change (FC) (MCF7 [1]): 0.795
- fold change (FC) (MCF7 [2]): 0.311
- fold change (surviving fraction) (MCF7 [3]): 0.381
- IC50 (MCF7 [4]): 52.6 µM
- fold change (FC) (MCF7 [5]): 0.448

Compound: CC1(C)CC(=O)C2=C(C1)N(c1ccc(S(N)(=O)=O)cc1)C(N)=C(C(N)=O)C2c1ccc(F)cc1 (stereo not given)
- fold change (FC) (MCF7 [1]): 0.906
- fold change (FC) (MCF7 [2]): 0.409
- fold change (surviving fraction) (MCF7 [3]): 0.493
- IC50 (MCF7 [4]): 75.2 µM
- fold change (FC) (MCF7 [5]): 0.711

Compound: CC(=O)NC1=C(C#N)C(c2ccc(F)cc2)C2=C(CC(C)(C)CC2=O)N1c1ccc(S(N)(=O)=O)cc1 (stereo not given)
- fold change (FC) (MCF7 [1]): 0.882
- fold change (FC) (MCF7 [2]): 0.598
- fold change (surviving fraction) (MCF7 [3]): 0.483
- IC50 (MCF7 [4]): 85.9 µM
- fold change (FC) (MCF7 [5]): 0.763

Compound: CC1(C)CC(=O)C2=C(C1)N(c1ccc(S(N)(=O)=O)cc1)c1nc(CC#N)[nH]c(=O)c1C2c1ccc(F)cc1 (stereo not given)
- fold change (FC) (MCF7 [1]): 0.976
- fold change (FC) (MCF7 [2]): 0.662
- fold change (surviving fraction) (MCF7 [3]): 0.6
- IC50 (MCF7 [4]): > 100 µM
- fold change (FC) (MCF7 [5]): 0.864

Compound: CC1(C)CC(=O)C2=C(C1)N(c1ccc(S(N)(=O)=O)cc1)C(N)=C(C1=NCCN1)C2c1ccc(F)cc1 (stereo not given)
- fold change (FC) (MCF7 [1]): 0.873
- fold change (FC) (MCF7 [2]): 0.423
- fold change (surviving fraction) (MCF7 [3]): 0.581
- IC50 (MCF7 [4]): 87 µM
- fold change (FC) (MCF7 [5]): 0.679

Compound: CC1(C)CC(=O)C2=C(C1)N(c1ccc(S(N)(=O)=O)cc1)c1nc[nH]c(=S)c1C2c1ccc(F)cc1 (stereo not given)
- fold change (FC) (MCF7 [1]): 0.99
- fold change (FC) (MCF7 [2]): 0.686
- fold change (surviving fraction) (MCF7 [3]): 0.608
- IC50 (MCF7 [4]): > 100 µM
- fold change (FC) (MCF7 [5]): 0.901
